Measurements as given in patent US20240368122A1, “JAK2 INHIBITORS AND METHODS OF USE THEREOF” (RELAY THERAPEUTICS, INC., priority 2021, published 2024).

Legend:
[1] = tested on: TF1 JAK2 V617F STAT5 reporter; experiment: Cellular TF1 STAT5 assay (luciferase reporter), JAK2 V617F; type: cell-based; conditions: TF1 JAK2 V617F, read-out: Cell PD TF1 V617F STAT5 (IC50)
Summary of the method: (§1)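 Inhibition of JAK2 V617F-mediated STAT3/STAT5 signalling is measured by reporter luminescence in TF1 erythroleukemia cells treated overnight (18-20 h) with a 10-point compound series; DMSO serves as vehicle.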

[2] = target: T1, JAK2 JH2 WT (V536-D812) [W659A, W777A, F794H solubilizing mutations] (Homo sapiens, UniProt O60674, F794H/W659A/W777A); experiment: Surface Plasmon Resonance (SPR) binding assay, JAK2 JH2 domain; conditions: SPR, JAK2 JH2 domain
T1 construct: **JAK2 JH2 WT (V536-D812) [W659A, W777A, F794H solubilizing mutations]; C-thrombin-avi-His6; thrombin cleavage site (C); His6 (C); purchased Biortus
T1 sequence (O60674 536-812 W659A/W777A/F794H): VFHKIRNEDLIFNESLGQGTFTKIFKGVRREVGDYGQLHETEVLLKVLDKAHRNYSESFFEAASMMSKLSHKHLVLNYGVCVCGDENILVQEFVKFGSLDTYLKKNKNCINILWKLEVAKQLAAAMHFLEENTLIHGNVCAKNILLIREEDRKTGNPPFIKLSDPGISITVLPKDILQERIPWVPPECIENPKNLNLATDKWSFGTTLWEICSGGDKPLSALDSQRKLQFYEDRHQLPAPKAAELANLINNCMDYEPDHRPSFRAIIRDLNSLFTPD
Summary of the method: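 Kinetics came from 1:1 fits of single-cycle runs at 20 °C: four 3-fold dilutions from 5 uM for JH1 or 500 nM for JH2, 60 s association, and 300 s or 1200 s dissociation respectively. Protein was freshly captured per compound in the presence of 10 uM stabilizer compound, with running buffer of pH 7.5 HEPES/NaCl/glycerol/DTT plus 2% DMSO.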

[3] = tested on: TF1 JAK2 V617F STAT3 reporter; experiment: Cellular TF1 STAT3 assay (luciferase reporter), JAK2 V617F; type: cell-based; conditions: TF1 JAK2 V617F, read-out: Cell PD-TF1 JAK2 V617F STAT3 (IC50)
Summary of the method: as §1

CNC(=O)c1nnc(NC(=O)C2CC2)cc1Nc1cccc(-c2cnc(C(=O)N(C)Cc3cccn(C)c3=O)c(F)c2)c1OC [Compound 29]
IC50 [1]: 50 to 500 nM | Kd [2]: 0.01 to 10 nM | IC50 [3]: 50 to 500 nM

CNC(=O)c1nnc(NC(=O)C2CC2)cc1Nc1cccc(-c2ccc(C(=O)N(C)Cc3cnc4ccc(Cl)cn34)nc2)c1OC [Compound 31]
IC50 [1]: 500 to 5000 nM | Kd [2]: 0.01 to 10 nM | IC50 [3]: 500 to 5000 nM

CNC(=O)c1nnc(NC(=O)C2CC2)cc1Nc1cccc(-c2cnn(C3(CC#N)CN(Cc4ccccn4)C3)c2)c1OC [Compound 38]
IC50 [1]: 5000 to 100000 nM | Kd [2]: 10 to 50 nM | IC50 [3]: 500 to 5000 nM

CNC(=O)c1nnc(NC(=O)C2CC2)cc1Nc1cccc(-c2ccc(C(=O)N(C)Cc3cccnn3)nc2)c1OC [Compound 45]
IC50 [1]: 500 to 5000 nM | Kd [2]: 0.01 to 10 nM | IC50 [3]: 500 to 5000 nM

CNC(=O)c1nnc(NC(=O)C2CC2)cc1Nc1ccc(C)c(-c2cnc(C(=O)N(C)Cc3ccn(C)n3)c(F)c2)c1OC [Compound 47]
IC50 [1]: 500 to 5000 nM | Kd [2]: 0.01 to 10 nM | IC50 [3]: 500 to 5000 nM

CNC(=O)c1nnc(NC(=O)C2CC2)cc1Nc1cccc(-c2cnc(C(=O)N(C)Cc3ccn(C)n3)nc2)c1OC [Compound 49]
IC50 [1]: 500 to 5000 nM | Kd [2]: 0.01 to 10 nM | IC50 [3]: 500 to 5000 nM

CNC(=O)c1nnc(NC(=O)C2CC2)cc1Nc1cccc(-c2ccc(C(=O)N(C)C(C)c3nc(C)no3)nc2)c1OC (stereo not drawn) [Compound 50]
IC50 [1]: 5000 to 100000 nM | Kd [2]: 0.01 to 10 nM | IC50 [3]: 5000 to 100000 nM

CNC(=O)c1nnc(NC(=O)C2CC2)cc1Nc1cccc(-c2ccc(C(=O)N(C)Cc3cn(C)nc3C(F)(F)F)nc2)c1OC [Compound 51]
IC50 [1]: 50 to 500 nM | Kd [2]: 0.01 to 10 nM | IC50 [3]: 50 to 500 nM

CNC(=O)c1nnc(NC(=O)C2CC2)cc1Nc1cccc(-c2ccc(C(=O)N(C)Cc3ccccc3C(F)(F)F)nc2)c1OC [Compound 52]
IC50 [1]: 500 to 5000 nM | Kd [2]: 0.01 to 10 nM | IC50 [3]: 500 to 5000 nM

CNC(=O)c1nnc(NC(=O)C2CC2)cc1Nc1cccc(-c2cnc(C(=O)N(C)Cc3ccn(C)n3)c(F)c2)c1OC [Compound 53]
IC50 [1]: 500 to 5000 nM | Kd [2]: 0.01 to 10 nM | IC50 [3]: 500 to 5000 nM

CNC(=O)c1nnc(NC(=O)C2CC2)cc1Nc1cccc(-c2ccc(C(=O)N(C)CC3Cc4ccccc4CO3)nc2)c1OC (stereo not drawn) [Compound 54]
IC50 [1]: 5000 to 100000 nM | Kd [2]: 0.01 to 10 nM | IC50 [3]: 500 to 5000 nM

CNC(=O)c1nnc(NC(=O)C2CC2)cc1Nc1cccc(-c2cnc(C(=O)N(C)Cc3nn(C)cc3Br)nc2)c1OC [Compound 56]
IC50 [1]: 50 to 500 nM | Kd [2]: 0.01 to 10 nM | IC50 [3]: 50 to 500 nM

CNC(=O)c1nnc(NC(=O)C2CC2)cc1Nc1cccc(-c2ccc(C(=O)N(C)Cc3cscn3)nc2)c1OC [Compound 57]
IC50 [1]: 50 to 500 nM | Kd [2]: 0.01 to 10 nM | IC50 [3]: 50 to 500 nM

CNC(=O)c1nnc(NC(=O)C2CC2)cc1Nc1cccc(-c2ccc(C(=O)N(C)Cc3nccs3)nc2)c1OC [Compound 58]
IC50 [1]: 500 to 5000 nM | Kd [2]: 0.01 to 10 nM | IC50 [3]: 500 to 5000 nM

CNC(=O)c1nnc(NC(=O)C2CC2)cc1Nc1cccc(-c2ccc(C(=O)N(C)Cc3ccns3)nc2)c1OC [Compound 59]
IC50 [1]: 5000 to 100000 nM | Kd [2]: 0.01 to 10 nM | IC50 [3]: 500 to 5000 nM

CNC(=O)c1nnc(NC(=O)C2CC2)cc1Nc1cccc(-c2ccc(C(=O)N(C)Cc3cncs3)nc2)c1OC [Compound 60]
IC50 [1]: 5000 to 100000 nM | Kd [2]: 10 to 50 nM | IC50 [3]: 500 to 5000 nM

[2H]C([2H])([2H])NC(=O)c1nnc(NC(=O)C2CC2)cc1Nc1cccc(-c2cnc(C(=O)N(C)Cc3ccn(C)n3)nc2)c1OC [Compound 62]
IC50 [1]: 500 to 5000 nM | Kd [2]: 0.01 to 10 nM | IC50 [3]: 500 to 5000 nM

[2H]C([2H])([2H])NC(=O)c1nnc(NC(=O)C2CC2)cc1Nc1cccc(-c2cnc(C(=O)N(Cc3ccn(C)n3)C([2H])([2H])[2H])nc2)c1OC [Compound 63]
IC50 [1]: 500 to 5000 nM | Kd [2]: 0.01 to 10 nM | IC50 [3]: 500 to 5000 nM

CNC(=O)c1nnc(NC(=O)C2CC2)cc1Nc1cccc(-c2cnc(C(=O)N(C)Cc3cn(C)nc3C(F)(F)F)nc2)c1OC [Compound 64]
IC50 [1]: 50 to 500 nM | Kd [2]: 0.01 to 10 nM | IC50 [3]: 500 to 5000 nM

CNC(=O)c1nnc(NC(=O)C2CC2)cc1Nc1ccc(C)c(-c2cnn(C3CN(Cc4ccccn4)C3)c2)c1OC [Compound 67]
IC50 [1]: 500 to 5000 nM | Kd [2]: 0.01 to 10 nM | IC50 [3]: 500 to 5000 nM

CNC(=O)c1nnc(NC(=O)C2CC2)cc1Nc1cccc(-c2cnn(C3CN(Cc4ncccc4F)C3)c2)c1OC [Compound 69]
IC50 [1]: 500 to 5000 nM | Kd [2]: 0.01 to 10 nM | IC50 [3]: 500 to 5000 nM

CNC(=O)c1nnc(NC(=O)C2CC2)cc1Nc1cccc(-c2cnn(C3CN(Cc4ncccn4)C3)c2)c1OC [Compound 70]
IC50 [1]: 500 to 5000 nM | Kd [2]: 0.01 to 10 nM | IC50 [3]: 500 to 5000 nM

CNC(=O)c1nnc(NC(=O)C2CC2)cc1Nc1cccc(-c2ccc(C(=O)N(C)Cc3cc(C#N)n(C)n3)nc2)c1OC [Compound 71]
IC50 [1]: 50 to 500 nM | Kd [2]: 0.01 to 10 nM | IC50 [3]: 50 to 500 nM

CNC(=O)c1nnc(NC(=O)C2CC2)cc1Nc1cccc(-c2ccc(C(=O)N(C)Cc3cc(S(C)(=O)=O)ccn3)nc2)c1OC [Compound 72]
IC50 [1]: 50 to 500 nM | Kd [2]: 0.01 to 10 nM | IC50 [3]: 50 to 500 nM

CNC(=O)c1nnc(NC(=O)C2CC2)cc1Nc1cccc(-c2ccc(C(=O)N(C)Cc3cc(S(C)(=O)=O)ccn3)cc2)c1OC [Compound 73]
IC50 [1]: 50 to 500 nM | Kd [2]: 0.01 to 10 nM | IC50 [3]: 50 to 500 nM

[2H]C([2H])([2H])NC(=O)c1nnc(NC(=O)C2CC2)cc1Nc1cccc(-c2ccc(C(=O)N(Cc3cc(C#N)ccn3)C([2H])([2H])[2H])nc2)c1OC [Compound 74]
IC50 [1]: 50 to 500 nM | Kd [2]: 0.01 to 10 nM | IC50 [3]: 50 to 500 nM

CNC(=O)c1nnc(NC(=O)C2CC2)cc1Nc1cccc(-c2ccc(C(=O)N(C)Cc3cn(C)nc3C(F)(F)F)nn2)c1OC [Compound 75]
IC50 [1]: 500 to 5000 nM | Kd [2]: 0.01 to 10 nM | IC50 [3]: 500 to 5000 nM

CNC(=O)c1nnc(NC(=O)C2CC2)cc1Nc1cccc(-c2ccc(C(=O)N(C)Cc3ccn(C)n3)nn2)c1OC [Compound 76]
IC50 [1]: 500 to 5000 nM | Kd [2]: 0.01 to 10 nM | IC50 [3]: 500 to 5000 nM

CNC(=O)c1nnc(NC(=O)C2CC2)cc1Nc1cccc(-c2cnn(C3CN(Cc4nccc(C)n4)C3)c2)c1OC [Compound 77]
IC50 [1]: 500 to 5000 nM | Kd [2]: 0.01 to 10 nM | IC50 [3]: 50 to 500 nM

CNC(=O)c1nnc(NC(=O)C2CC2)cc1Nc1cccc(-c2cnn(C3CN(Cc4nccc(OC)n4)C3)c2)c1OC [Compound 78]
IC50 [1]: 500 to 5000 nM | Kd [2]: 0.01 to 10 nM | IC50 [3]: 500 to 5000 nM

[2H]C([2H])([2H])NC(=O)c1nnc(NC(=O)C2CC2)cc1Nc1cccc(-c2ccc(C(=O)N(C)Cc3ccn(C)n3)nc2)c1OC [Compound 79]
IC50 [1]: 500 to 5000 nM | Kd [2]: 0.01 to 10 nM | IC50 [3]: 50 to 500 nM

CNC(=O)c1nnc(NC(=O)C2CC2)cc1Nc1cccc(-c2ccc(C(=O)N(C)Cc3cccc(OC(F)F)c3)nc2)c1OC [Compound 80]
IC50 [1]: 500 to 5000 nM | Kd [2]: 0.01 to 10 nM | IC50 [3]: 50 to 500 nM

CNC(=O)c1nnc(NC(=O)C2CC2)cc1Nc1cccc(-c2ccc(C(=O)N(C)Cc3ccccc3C(C)C)nc2)c1OC [Compound 81]
IC50 [1]: 500 to 5000 nM | Kd [2]: 10 to 50 nM | IC50 [3]: 500 to 5000 nM

CNC(=O)c1nnc(NC(=O)C2CC2)cc1Nc1cccc(-c2ccc(C(=O)N(C)Cc3cc(Cl)ccc3OC)nc2)c1OC [Compound 82]
IC50 [1]: 500 to 5000 nM | Kd [2]: 0.01 to 10 nM | IC50 [3]: 500 to 5000 nM

CCOc1ccccc1CN(C)C(=O)c1ccc(-c2cccc(Nc3cc(NC(=O)C4CC4)nnc3C(=O)NC)c2OC)cn1 [Compound 83]
IC50 [1]: 500 to 5000 nM | Kd [2]: 0.01 to 10 nM | IC50 [3]: 500 to 5000 nM

CNC(=O)c1nnc(NC(=O)C2CC2)cc1Nc1cccc(-c2ccc(C(=O)N(C)Cc3cn4c(n3)CCCC4)nc2)c1OC [Compound 84]
IC50 [1]: 5000 to 100000 nM | Kd [2]: 10 to 50 nM | IC50 [3]: 500 to 5000 nM
